Measurements published in PubChem BioAssay (NCI).
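Five compound concentrations were applied to cells in 96-well plates for 48 hours; endpoints were derived by simple linear interpolation of the resulting dose-response curve. TGI marks complete inhibition of growth.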

How the values were obtained:
Assay in all cases: NCI tumour cell line growth inhibition, 48 h
HOP-92 NSCLC = tested on: HOP-92 NSCLC
SNB-19 CNS = tested on: SNB-19 CNS
RPMI-8226 leukemia = tested on: RPMI-8226 leukemia
ACHN renal = tested on: ACHN renal
NCI-H226 lung = tested on: NCI-H226 lung
786-0 renal = tested on: 786-0 renal
MOLT-4 leukemia = tested on: MOLT-4 leukemia
DU-145 prostate = tested on: DU-145 prostate
NCI/ADR-RES ovarian = tested on: NCI/ADR-RES ovarian
KM12 colon = tested on: KM12 colon
OVCAR-8 ovarian = tested on: OVCAR-8 ovarian
SK-MEL-28 melanoma = tested on: SK-MEL-28 melanoma
HS 578T breast = tested on: HS 578T breast
SK-OV-3 ovarian = tested on: SK-OV-3 ovarian
EKVX NSCLC = tested on: EKVX NSCLC
MDA-MB-435 = tested on: MDA-MB-435
SNB-75 CNS = tested on: SNB-75 CNS
SF-539 CNS = tested on: SF-539 CNS
MCF7 breast = tested on: MCF7 breast
SN12C renal = tested on: SN12C renal
NCI-H522 lung = tested on: NCI-H522 lung
IGROV1 ovarian = tested on: IGROV1 ovarian
TK-10 renal = tested on: TK-10 renal
CAKI-1 renal = tested on: CAKI-1 renal
BT-549 breast = tested on: BT-549 breast
U251 CNS = tested on: U251 CNS
T-47D breast = tested on: T-47D breast
K-562 leukemia = tested on: K-562 leukemia
LOX IMVI melanoma = tested on: LOX IMVI melanoma
HCC-2998 colon = tested on: HCC-2998 colon
SF-268 CNS = tested on: SF-268 CNS
OVCAR-3 ovarian = tested on: OVCAR-3 ovarian
UACC-257 melanoma = tested on: UACC-257 melanoma
HCT-15 colon = tested on: HCT-15 colon
A549 NSCLC = tested on: A549 NSCLC
PC-3 prostate = tested on: PC-3 prostate
OVCAR-4 ovarian = tested on: OVCAR-4 ovarian
HT29 colon = tested on: HT29 colon
UO-31 renal = tested on: UO-31 renal
NCI-H23 lung = tested on: NCI-H23 lung
MALME-3M melanoma = tested on: MALME-3M melanoma
M14 melanoma = tested on: M14 melanoma
SK-MEL-5 melanoma = tested on: SK-MEL-5 melanoma
SF-295 CNS = tested on: SF-295 CNS
CCRF-CEM leukemia = tested on: CCRF-CEM leukemia
SR leukemia = tested on: SR leukemia
NCI-H460 lung = tested on: NCI-H460 lung
SK-MEL-2 melanoma = tested on: SK-MEL-2 melanoma
HCT-116 colon = tested on: HCT-116 colon
HOP-62 NSCLC = tested on: HOP-62 NSCLC
SW-620 colon = tested on: SW-620 colon
MDA-MB-231 breast = tested on: MDA-MB-231 breast
COLO 205 colon = tested on: COLO 205 colon
OVCAR-5 ovarian = tested on: OVCAR-5 ovarian

Q: With COc1ccc2c(c1)c1c(n2CCN2CCCCC2)-c2ccccc2CC1 as the compound, how does the TGI (HOP-92 NSCLC) read?
A: Its TGI is 31.9 µM.

Q: What about the TGI (SNB-19 CNS) of the same compound?
A: Its TGI is 46.9 µM.

Q: And the TGI (RPMI-8226 leukemia)?
A: The TGI was 56.1 µM.

Q: What about the TGI (ACHN renal) of the same compound?
A: Its TGI is 33.3 µM.

Q: What about the TGI (NCI-H226 lung) of the same compound?
A: Its TGI is 19.3 µM.

Q: What about the TGI (786-0 renal) of the same compound?
A: The TGI was 34.5 µM.

Q: And the TGI (MOLT-4 leukemia)?
A: Its TGI is 40.7 µM.

Q: And the TGI (DU-145 prostate)?
A: Its TGI is greater than 100 µM.

Q: What about the TGI (NCI/ADR-RES ovarian) of the same compound?
A: Its TGI is 33.2 µM.

Q: And the TGI (KM12 colon)?
A: The TGI was 27.3 µM.

Q: And the TGI (OVCAR-8 ovarian)?
A: The TGI was 29 µM.

Q: What about the TGI (SK-MEL-28 melanoma) of the same compound?
A: The TGI was 38.5 µM.

Q: And the TGI (HS 578T breast)?
A: The TGI was 28.5 µM.

Q: What about the TGI (SK-OV-3 ovarian) of the same compound?
A: The TGI was 40.9 µM.

Q: What about the TGI (EKVX NSCLC) of the same compound?
A: The TGI was 36.7 µM.

Q: What about the TGI (MDA-MB-435) of the same compound?
A: Its TGI is 38.3 µM.

Q: What about the TGI (SNB-75 CNS) of the same compound?
A: The TGI was 35.1 µM.

Q: What about the TGI (SF-539 CNS) of the same compound?
A: Its TGI is 27.4 µM.

Q: And the TGI (MCF7 breast)?
A: Its TGI is 30.2 µM.

Q: What about the TGI (SN12C renal) of the same compound?
A: Its TGI is 33.5 µM.

Q: What about the TGI (NCI-H522 lung) of the same compound?
A: Its TGI is 21.8 µM.

Q: And the TGI (IGROV1 ovarian)?
A: Its TGI is 30.3 µM.

Q: And the TGI (TK-10 renal)?
A: Its TGI is 27.6 µM.

Q: And the TGI (CAKI-1 renal)?
A: The TGI was 26.9 µM.

Q: What about the TGI (BT-549 breast) of the same compound?
A: Its TGI is 41.5 µM.

Q: What about the TGI (U251 CNS) of the same compound?
A: Its TGI is 30.5 µM.

Q: And the TGI (T-47D breast)?
A: Its TGI is 35.6 µM.

Q: And the TGI (K-562 leukemia)?
A: The TGI was 45.9 µM.

Q: And the TGI (LOX IMVI melanoma)?
A: Its TGI is 40.4 µM.

Q: What about the TGI (HCC-2998 colon) of the same compound?
A: The TGI was 20.7 µM.

Q: And the TGI (SF-268 CNS)?
A: The TGI was 30 µM.

Q: And the TGI (OVCAR-3 ovarian)?
A: Its TGI is 33.8 µM.

Q: What about the TGI (UACC-257 melanoma) of the same compound?
A: Its TGI is 32.1 µM.

Q: What about the TGI (HCT-15 colon) of the same compound?
A: The TGI was 24.5 µM.

Q: What about the TGI (A549 NSCLC) of the same compound?
A: Its TGI is 36.6 µM.

Q: What about the TGI (PC-3 prostate) of the same compound?
A: Its TGI is 30.3 µM.

Q: What about the TGI (OVCAR-4 ovarian) of the same compound?
A: Its TGI is 42 µM.

Q: What about the TGI (HT29 colon) of the same compound?
A: The TGI was 17.2 µM.

Q: What about the TGI (UO-31 renal) of the same compound?
A: The TGI was 26.1 µM.

Q: And the TGI (NCI-H23 lung)?
A: The TGI was 31.9 µM.

Q: And the TGI (MALME-3M melanoma)?
A: Its TGI is 28.3 µM.

Q: What about the TGI (M14 melanoma) of the same compound?
A: The TGI was 28.7 µM.

Q: And the TGI (SK-MEL-5 melanoma)?
A: The TGI was 37.3 µM.

Q: What about the TGI (SF-295 CNS) of the same compound?
A: Its TGI is 28.4 µM.

Q: And the TGI (CCRF-CEM leukemia)?
A: The TGI was 47.4 µM.

Q: What about the TGI (SR leukemia) of the same compound?
A: Its TGI is 42.4 µM.

Q: What about the TGI (NCI-H460 lung) of the same compound?
A: Its TGI is 28.3 µM.

Q: What about the TGI (SK-MEL-2 melanoma) of the same compound?
A: The TGI was 29.3 µM.

Q: And the TGI (HCT-116 colon)?
A: Its TGI is 31 µM.

Q: And the TGI (HOP-62 NSCLC)?
A: Its TGI is 34.7 µM.

Q: What about the TGI (SW-620 colon) of the same compound?
A: Its TGI is 37.8 µM.

Q: What about the TGI (MDA-MB-231 breast) of the same compound?
A: The TGI was 31.8 µM.

Q: What about the TGI (COLO 205 colon) of the same compound?
A: The TGI was 29.5 µM.

Q: What about the TGI (OVCAR-5 ovarian) of the same compound?
A: Its TGI is 31.2 µM.
